Source: patent US20210253598A1, “ARYL ANNULATED MACROCYCLIC INDOLE DERIVATIVES” (priority 2017, published 2021)
Values joined by “and” are separate entries in the source; they are usually repeats but may differ in a detail not shown here. Equal entries are not always repeated. Structures can show the parent of a compound that is named as a salt. Where two headings read alike, the source gives them in different places.

Experiments:
MCL-1 [1] = molecular target: T1, MCL-1 (Homo sapiens, UniProt Q07820, K194A/K197A/R201A); assay: Protein-compound interaction assay, surface plasmon resonance (SPR assay, Assay 8); assay type: binding
Source text: Protein-Compound Interaction Assay (SPR Assay)
The ability of the compounds described in this invention to bind to MCL-1 may be determined using surface plasmon resonance (SPR). This allows for the quantification of binding in terms of the equilibrium dissociation constant (KD [M]), as well as association and dissociation rate constants (kon [1/M 1/s] and koff [1/s], respectively). The measurements may be performed using Biacore® T200 or Biacore® S200 instruments (GE Healthcare).
Briefly, carboxymethylated dextran biosensor chips (Series S Sensor Chip CM5, GE Healthcare) were activated with 1-ethyl-3-(3-dimethylaminopropyl)-carbodiimide hydrochloride (EDC) and N-hydroxysuccinimide (NHS) according to the supplier's instructions. MBP-MCL-1 was diluted in 1×PBS-P+ (GE Healthcare) and injected on the activated chip surface. Subsequently, a solution of 1 M ethanolamine-HCl (GE Healthcare) was injected to block unreacted groups, resulting in approximately 400-2500 response units (RU) of immobilized protein. A reference surface was generated by treatment with NHS-EDC and ethanolamine-HCl. […] Compounds were injected for 60 s followed by a dissociation time of up to 1000 s.
The double-referenced sensorgrams were fit to a simple reversible Langmuir 1:1 reaction mechanism as implemented in the Biacore® T200 and S200 evaluation software (T200 evaluation software version 2.0 and S200 evaluation software version 1.0, GE Healthcare).

MCL-1 [2] = molecular target: T1, MCL-1; assay: Protein-protein interaction assay MCL-1/Noxa BH3 peptide, TR-FRET (MCL-1 assay, Assay 1); assay type: binding; conditions: MBP-MCL-1 / Noxa BH3 peptide
Method in brief: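 TR-FRET competition between compounds and a biotin-PEG Noxa BH3 tracer for 1 nM MBP-MCL-1 (residues 173-321). Incubation was 1 h at 22 °C in the dark, then overnight at 4 °C, in 50 mM Tris pH 7 buffer with KF and DTT, after a 10-min compound pre-equilibration. Normalized ratios were fitted with a 4-parameter Hill equation to give IC50.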

BCL-2 = BCL-2 (Homo sapiens, UniProt P10415); assay: Protein-protein interaction assay BCL-2/Bad BH3 peptide, TR-FRET (BCL-2 assay, Assay 3); assay type: binding; conditions: His-BCL-2 / Bad BH3 peptide, median
Procedure: The dose-dependent inhibition by the compounds described in this invention of the interaction between BCL-2 and the BH3 domain of Bad (both human) was determined using a steady state binding competition assay with time-resolved fluorescence energy transfer (TR-FRET) readout. For that purpose BCL-2 (amino acids 1-211, C-terminal fused to a hexahistidine (6×His) tag (SEQ ID 5) and a synthetic Bad BH3-derived peptide of sequence Biotin-PEG2-PEG2-[sequence]-Nle-[sequence]-amide (SEQ ID 4) served as protein receptor and tracer ligand respectively. The recombinant BCL-2 protein (expressed in E. coli) was purchased from BPS Bioscience (San Diego, Calif., USA). The Bad BH3-derived peptide can be obtained from e.g. Biosyntan (Berlin, Germany).
For that, 100-fold concentrated DMSO solutions were prepared by serial dilutions (1:3.4) of a 2 mM stock solution in a clear, 384-well microtiter plate (Greiner Bio-One, Frickenhausen, Germany). From there, 50 nl were transferred in a dark test plate (Greiner Bio-One, Frickenhausen, Germany). The assay was initiated by addition of 2 μl of a 2,5-fold concentrated His-BCL-2 solution (usually for a 1 nM end concentration in 5 μl reaction volume) in aqueous assay buffer [50 mM Tris/HCl pH 7, 100 mM sodium chloride (NaCl), 50 mM potassium fluoride (KF), 0.005% Tween-20, 2 mM DTT, 0.1% bovine gamma globulin (BGG)] to the compounds in the assay plate. This was followed by a 10-minute incubation step at 22° C. for pre-equilibration of the putative complex between His-BCL-2 and the compounds.
The mixture was incubated in the dark for one hour at 22° C. and then overnight at 4° C. The formation of BCL-2/Bad complexes was determined by measuring the resonance energy transfer of the anti-His-Eu-cryptate antibody to the streptavidin-XL665 present in the reaction. For that purpose, the fluorescence emission at 620 nm and 665 nm after excitation at 330-350 nm was measured in a TR-FRET measuring instrument, for instance a Rubystar or a Pherastar (both from BMG Lab Technologies, Offenburg, Germany) or a Viewlux (Perkin-Elmer). The ratio of the emission at 665 nm and at 622 nm was used as indicator of the amount of BCL-2/Bad complexes present.
The resulting data (ratio) were normalized, taking 0% inhibition as the mean value of control measurements (usually 32 data points) where all reagents were included. In this case 50 nl DMSO were used instead of compounds. […] IC50 values were determined by regression analysis based on a 4 parameter equation (minimum, maximum, IC50, Hill; Y=Max+(Min−Max)/(1+(X/IC50)^Hill) using the Screener Software (Genedata).

AMO-1 = assay: Anti-proliferative effect in AMO-1 cells, CellTiter-Glo (Assay 7); assay type: cell-based
Method in brief: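 72 h CTG viability assay, 37 °C, humidified. Time-zero plate as baseline; IC50 vs day 0 and DMSO controls.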

[3] = KD [M], SPR, immobilized MBP-MCL-1, 25° C., geometric mean
[4] = read-out: koff [1/s], SPR, immobilized MBP-MCL-1, 25° C., geometric mean
[5] = read-out: kon [1/M 1/s], SPR, immobilized MBP-MCL-1, 25° C., geometric mean
[6] = AMO-1, 72 hours incubation, CellTiter-Glo; several values per example; read-out: Antiproli AMO-1
[7] = SPR, immobilized MBP-MCL-1, 25° C., geometric mean
[8] = SPR, immobilized MBP-MCL-1, 25° C., geometric mean, read-out: KD
[9] = median, read-out: MCL-1 Assay [M] (median)
[10] = Homo sapiens, AMO1, 72 h, AMO-1, 72 hours incubation, CellTiter-Glo; several values per example; read-out: Antiproli AMO-1
[11] = read-out: Antiproli AMO-1; AMO-1, 72 hours incubation, CellTiter-Glo; several values per example

Sequence of BCL-2 (P10415 1-211): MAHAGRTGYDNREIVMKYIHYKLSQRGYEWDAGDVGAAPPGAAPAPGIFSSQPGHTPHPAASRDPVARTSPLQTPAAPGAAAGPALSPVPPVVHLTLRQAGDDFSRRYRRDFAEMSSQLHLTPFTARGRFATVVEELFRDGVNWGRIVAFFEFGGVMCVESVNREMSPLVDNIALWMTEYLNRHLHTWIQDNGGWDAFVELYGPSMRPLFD
T1 sequence (Q07820 173-321 K194A/K197A/R201A, looked up): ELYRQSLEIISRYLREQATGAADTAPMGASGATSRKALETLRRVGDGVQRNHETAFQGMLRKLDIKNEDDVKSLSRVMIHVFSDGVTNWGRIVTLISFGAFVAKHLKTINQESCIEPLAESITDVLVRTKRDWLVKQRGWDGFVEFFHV

Structure (SMILES)	Kd (MCL-1 [1]; [3]) [M]	koff (MCL-1 [1]; [4]) [s⁻¹]	kon (MCL-1 [1]; [5]) [M⁻¹ s⁻¹]	IC50 (MCL-1 [2]; MCL-1 Assay [M] (median))	IC50 (BCL-2) [nM]	IC50 (AMO-1; [6])	further results
Cc1c2c(nn1C)COCc1ccccc1Cn1c(C(=O)O)c(CCCOc3cccc4cc(F)ccc34)c3ccc(Cl)c-2c31 (racemic) [Example 48, (rac)-3-Chloro-17-{3-[(6-fluoronaphthalen-1-yl)oxy]propyl}-4,5-dimethyl-5,7,9,14-tetrahydroindolo[7,1-fg]pyrazolo[3,4-d][2,8]benzoxazacycloundecine-16-carboxylic Acid]	8e-09	0.006	750000	5.9e-10	–	–	–
Cc1c2c(nn1C)COCc1ncccc1Cn1c(C(=O)O)c(CCCOc3cccc4ccccc34)c3cccc-2c31 (single isomer, unassigned; enantiomer 1) [Example 8, 4,5-Dimethyl-17-[3-(naphthalen-1-yloxy)propyl]-5,7,9,14-tetrahydropyrazolo[4′,3′:9,10]-pyrido[2′,3′:3,4][1,6]oxazacycloundecino[8,7,6-hi]indole-16-carboxylic acid-N-ethylethanamine Salt (Enantiomer 1)]	3.4e-09	–	–	1.5e-09	> 20000	–	–
Cc1c2c(nn1C)COCc1ccccc1Cn1c(C(=O)O)c(CCCOc3cccc4ccccc34)c3ccc(Cl)c-2c31 (single isomer, unassigned; enantiomer 1) [Example 37, (−)-3-Chloro-4,5-dimethyl-17-[3-(naphthalen-1-yloxy)propyl]-5,7,9,14-tetrahydroindolo[7,1-fg]pyrazolo[3,4-d][2,8]benzoxazacycloundecine-16-carboxylic Acid (Enantiomer 1)]	4.7e-09	0.011	2.4e+06	1.3e-09	> 20000	–	–
CCNCC.Cc1c2c(nn1C)COCc1ncccc1Cn1c(C(=O)O)c(CCCOc3cccc4ccccc34)c3ccc(Cl)c-2c31 (single isomer, unassigned; enantiomer 1) [Example 43, 3-Chloro-4,5-dimethyl-17-[3-(naphthalen-1-yloxy)propyl]-5,7,9,14-tetrahydropyrazolo-[4′,3′:9,10]pyrido[2′,3′:3,4][1,6]oxazacycloundecino[8,7,6-hi]indole-16-carboxylic acid-N-ethylethanamine Salt (Enantiomer 1)]	–	–	–	–	> 20000	5160 nM and 7470 nM	koff (MCL-1 [1]; [7]): 0.0096 s⁻¹; kon [1/M 1/s] (MCL-1 [1]; [7]): 5.6E6 1/M 1/s; Kd (MCL-1 [1]; [8]): 1.7e-09 M; IC50 (MCL-1 [2]; [9]): 5.1e-10 M
Cc1c2c(nn1C)COCc1ccccc1Cn1c(C(=O)O)c(CCCOc3cccc4cc(F)ccc34)c3ccc(Cl)c-2c31 (single isomer, unassigned; enantiomer 1) [Example 49, (−)-3-Chloro-17-{3-[(6-fluoronaphthalen-1-yl)oxy]propyl}-4,5-dimethyl-5,7,9,14-tetrahydroindolo[7,1-fg]pyrazolo[3,4-d][2,8]benzoxazacycloundecine-16-carboxylic acid-N-ethylethanamine Salt (Enantiomer 1)]	3e-09	0.0058	1.9e+06	4.7e-10	≥ 21800	–	IC50 (AMO-1; [10]): 1920 nM
CCc1nn(CCN2CCOCC2)c2c1-c1c(Cl)ccc3c(CCCOc4cccc5cc(F)ccc45)c(C(=O)O)n(c13)Cc1ccccc1COC2 (single isomer, unassigned; enantiomer 1) [Example 52, (−)-3-Chloro-4-ethyl-17-{3-[(6-fluoronaphthalen-1-yl)oxy]propyl}-6-[2-(morpholin-4-yl)ethyl]-6,7,9,14-tetrahydroindolo[7,1-fg]pyrazolo[3,4-d][2,8]benzoxazacycloundecine-16-carboxylic Acid (Enantiomer 1)]	–	–	–	9.6e-10	> 20000	2270 nM	Kd (MCL-1 [1]; [8]): 1.5e-09 M; koff (MCL-1 [1]; read-out: koff [1/s]): 0.024 s⁻¹; kon (MCL-1 [1]; read-out: kon [1/M 1/s]): 1.6e+07 M⁻¹ s⁻¹
CCc1c2c(nn1C)COCc1ccccc1Cn1c(C(=O)O)c(CCCOc3cccc4cc(F)ccc34)c3ccc(Cl)c-2c31 (single isomer, unassigned; enantiomer 1) [Example 55, (−)-3-Chloro-4-ethyl-17-{3-[(6-fluoronaphthalen-1-yl)oxy]propyl}-5-methyl-5,7,9,14-tetrahydro-indolo[7,1-fg]pyrazolo[3,4-d][2,8]benzoxazacycloundecine-16-carboxylic Acid N-ethylethanamine Salt (Enantiomer 1)]	3.9e-09	–	–	–	18000	–	IC50 (AMO-1; [11]): 1190 nM
CCc1nn(C)c2c1-c1c(Cl)ccc3c(CCCOc4cccc5cc(F)ccc45)c(C(=O)O)n(c13)Cc1ccccc1COC2 (single isomer, unassigned; enantiomer 1) [Example 58, (+)-3-Chloro-4-ethyl-17-{3-[(6-fluoronaphthalen-1-yl)oxy]propyl}-6-methyl-6,7,9,14-tetrahydro-indolo[7,1-fg]pyrazolo[3,4-d][2,8]benzoxazacycloundecine-16-carboxylic acid-N-ethylethanamine Salt (Enantiomer 1)]	–	–	–	–	10600	1610 nM	IC50 (MCL-1 [2]; [9]): 2.6e-09 M
Cc1c2c(nn1C)COCc1ccccc1Cn1c(C(=O)O)c(CCCOc3cccc4cc(F)ccc34)c3ccc(F)c-2c31 (single isomer, unassigned; enantiomer 1) [Example 65, (−)-3-fluoro-17-{3-[(6-fluoronaphthalen-1-yl)oxy]propyl}-4,5-dimethyl-5,7,9,14-tetrahydroindolo[7,1-fg]pyrazolo[3,4-d][2,8]benzoxazacycloundecine-16-carboxylic acid-N-ethylethanamine Salt (Enantiomer 1)]	1.4e-09	0.011	8e+06	1.3e-09	16900	1750 nM	IC50 (AMO-1; [10]): 2000 nM
Cc1c2c(nn1C)COCc1ccccc1Cn1c(C(=O)O)c(CCCOc3cccc4ccccc34)c3ccc(F)c-2c31 (single isomer, unassigned; enantiomer 1) [Example 68, (−)-3-Fluoro-4,5-dimethyl-17-{3-[(naphthalen-1-yl)oxy]propyl}-5,7,9,14-tetrahydroindolo[7,1-fg]pyrazolo[3,4-d][2,8]benzoxazacycloundecine-16-carboxylic acid-N-ethylethanamine Salt (Enantiomer 1)]	–	–	–	3.2e-09	> 20000	–	IC50 (AMO-1; [11]): 4400 nM and 4890 nM
Cc1c2c(nn1C)COCc1ccccc1Cn1c(C(=O)O)c(CCCOc3cccc4cc(F)ccc34)c3ccc(Cl)c-2c31 (single isomer, unassigned; enantiomer 2) [Example 50, (+)-3-Chloro-17-{3-[(6-fluoronaphthalen-1-yl)oxy]propyl}-4,5-dimethyl-5,7,9,14-tetrahydroindolo[7,1-fg]pyrazolo[3,4-d][2,8]benzoxazacycloundecine-16-carboxylic acid-N-ethylethanamine Salt (Enantiomer 2)]	3.8e-09	–	–	1.4e-09	–	2820 nM	koff (MCL-1 [1]; [7]): 0.0061 s⁻¹; kon [1/M 1/s] (MCL-1 [1]; [7]): 1.6E6 1/M 1/s
CCc1c2c(nn1C)COCc1ccccc1Cn1c(C(=O)O)c(CCCOc3cccc4cc(F)ccc34)c3ccc(Cl)c-2c31 (single isomer, unassigned; enantiomer 2) [Example 56, (+)-3-Chloro-4-ethyl-17-{3-[(6-fluoronaphthalen-1-yl)oxy]propyl}-5-methyl-5,7,9,14-tetrahydro-indolo[7,1-fg]pyrazolo[3,4-d][2,8]benzoxazacycloundecine-16-carboxylic Acid N-ethylethanamine Salt (Enantiomer 2)]	–	–	–	3.2e-09	–	–	IC50 (AMO-1; [11]): 4200 nM
